Experimental data from patent publication US7601746B2 (Shionogi & Co., Ltd., priority 2003, dated 2009).

Molecular target: T1, human TPO receptor (hTPOR) (Homo sapiens, UniProt P40238)
T1 construct: expressed in transfected cells; host or cells: BaF-B03 (murine IL-3 dependent cell line)
T1 sequence (P40238 26-635): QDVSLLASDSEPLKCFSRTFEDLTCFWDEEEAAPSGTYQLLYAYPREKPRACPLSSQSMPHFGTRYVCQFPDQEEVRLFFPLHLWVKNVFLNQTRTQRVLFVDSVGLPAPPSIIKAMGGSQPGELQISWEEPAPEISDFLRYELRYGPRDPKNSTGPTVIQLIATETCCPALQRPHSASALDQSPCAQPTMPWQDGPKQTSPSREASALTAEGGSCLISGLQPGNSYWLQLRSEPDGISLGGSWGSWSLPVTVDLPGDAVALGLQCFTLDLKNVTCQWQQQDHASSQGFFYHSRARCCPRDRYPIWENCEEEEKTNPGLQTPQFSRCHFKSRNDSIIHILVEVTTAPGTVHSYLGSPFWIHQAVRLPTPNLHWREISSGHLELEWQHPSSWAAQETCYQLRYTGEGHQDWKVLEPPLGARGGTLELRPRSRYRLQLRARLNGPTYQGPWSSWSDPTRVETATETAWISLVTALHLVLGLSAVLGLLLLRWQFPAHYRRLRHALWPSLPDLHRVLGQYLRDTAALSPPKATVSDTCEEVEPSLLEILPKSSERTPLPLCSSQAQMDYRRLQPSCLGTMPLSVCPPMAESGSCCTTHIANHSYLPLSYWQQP
Experiment: Thrombopoietic activity: proliferation of TPO dependent BaF/hTPOR cells (WST-1, absorbance at 450 nm)
Assay type: cell-based
Conditions: 20 h + 4 h WST-1, ED50 = half concentration of the concentration showing the maximum thrombopoietic activity
Method in brief: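 Proliferation read-out: WST-1 absorbance at 450 nm after 20 h compound exposure plus 4 h reagent, using IL-3-deprived BaF/hTPOR cells (5×10^4 per well) dependent on human TPO receptor signalling. ED50 defined as half the concentration producing maximal activity.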

Row | EC50 (Table 1) [nM] | EC50 (Table 2) [nM] | Compound
1 | 15.5 |  | CCCCOCc1cccc(-c2csc(NC(=O)c3cc(F)c(/C=C(\C)C(=O)O)c(F)c3)n2)c1OC [Compound B1997, (E)-3-{4-[4-(3-butyloxymethyl-2-methyloxyphenyl)thiazol-2-ylcarbamoyl]-2,6-difluorophenyl}-2-methylacrylic acid]
2 | 10.3 |  | CCCCCCCCOc1cccc(-c2csc(NC(=O)c3cc(Cl)c(/C=C(\C)C(=O)O)c(Cl)c3)n2)c1OC [Compound B2005, (E)-3-{2,6-dichloro-4-[4-(2-methyloxy-3-octyloxyphenyl)thiazol-2-ylcarbamoyl]phenyl}-2-methylacrylic acid]
3 |  | 24.2 | CO/C(=C\c1c(F)cc(C(=O)Nc2nc(-c3cccc(C(CCOC(C)C)OC)c3F)cs2)cc1F)C(=O)O (stereo not shown) [Compound B2012, (Z)-3-(2,6-difluoro-4-{4-[2-fluoro-3-(3-isopropyloxy-1-methyloxypropyl)phenyl]thiazol-2-ylcarbamoyl}phenyl)-2-methyloxyacrylic acid]
4 |  | 23.5 | COc1cccc(-c2csc(NC(=O)c3cc(Cl)c(/C=C(\C)C(=O)O)c(Cl)c3)n2)c1F [Compound B2018, (E)-3-{2,6-dichloro-4-[4-(2-fluoro-3-methyloxyphenyl)thiazol-2-ylcarbamoyl]phenyl}-2-methylacrylic acid]
5 | 9.96 |  | CCC(CC)COCc1cccc(-c2csc(NC(=O)c3cc(F)c(/C=C(\OC)C(=O)O)c(F)c3)n2)c1OC [Compound B2024, (Z)-3-(4-{4-[3-(2-ethylbutyloxymethyl)-2-methyloxyphenyl]thiazol-2-ylcarbamoyl}-2,6-difluorophenyl)-2-methyloxyacrylic acid]
6 | 3.2 |  | CCC(CC)COCc1cccc(-c2csc(NC(=O)c3cc(Cl)c(/C=C(\C)C(=O)O)c(Cl)c3)n2)c1OC [Compound B2025, (E)-3-(2,6-dichloro-4-{4-[3-(2-ethylbutyloxymethyl)-2-methyloxyphenyl]thiazol-2-ylcarbamoyl}phenyl)-2-methylacrylic acid]
7 | 12.6 |  | COc1c(COCCC(C)C)cccc1-c1csc(NC(=O)c2cc(F)c(/C=C(\C)C(=O)O)c(F)c2)n1 [Compound B2027, (E)-3-(2,6-difluoro-4-{4-[2-methyloxy-3-(3-methylbutyloxymethyl)phenyl]thiazol-2-ylcarbamoyl}phenyl)-2-methylacrylic acid]
8 | 2.91 |  | CCCCCCCCCC(OC)c1cccc(-c2csc(NC(=O)c3cc(F)c(/C=C(\C)C(=O)O)c(F)c3)n2)c1OCC (stereo not shown) [Compound B2099, (E)-3-(4-{4-[2-ethyloxy-3-(1-methyloxydecyl)phenyl]thiazol-2-ylcarbamoyl}-2,6-difluorophenyl)-2-methylacrylic acid]

Continued, compound first:

Row | Compound | EC50 (Table 1) [nM] | EC50 (Table 2) [nM]
9 | CCCCCCCOc1cccc(-c2csc(NC(=O)c3cc(F)c(/C=C(\C)C(=O)O)c(F)c3)n2)c1OC [Compound B1998, (E)-3-{2,6-difluoro-4-[4-(3-heptyloxy-2-methyloxyphenyl)thiazol-2-ylcarbamoyl]phenyl}-2-methylacrylic acid] | 8.35 | 
10 | CCCCCCCOc1cccc(-c2csc(NC(=O)c3cc(Cl)c(/C=C(\C)C(=O)O)c(Cl)c3)n2)c1OC [Compound B1999, (E)-3-{2,6-dichloro-4-[4-(3-heptyloxy-2-methyloxyphenyl)thiazol-2-ylcarbamoyl]phenyl}-2-methylacrylic acid] | 13.2 | 
11 | CCCCCCCOc1cccc(-c2csc(NC(=O)c3cc(F)c(/C=C(\OC)C(=O)O)c(F)c3)n2)c1OC [Compound B2000, (Z)-3-{2,6-difluoro-4-[4-(3-heptyloxy-2-methyloxyphenyl)thiazol-2-ylcarbamoyl]phenyl}-2-methyloxyacrylic acid] |  | 20.5
12 | CCCCCCCOc1cccc(-c2csc(NC(=O)c3cc(Cl)c(/C=C(\OC)C(=O)O)c(Cl)c3)n2)c1OC [Compound B2001, (Z)-3-{2,6-dichloro-4-[4-(3-heptyloxy-2-methyloxyphenyl)thiazol-2-ylcarbamoyl]phenyl}-2-methyloxyacrylic acid] | 19.4 | 
13 | COc1c(CCOCCCCF)cccc1-c1csc(NC(=O)c2cc(Cl)c(/C=C(\C)C(=O)O)c(Cl)c2)n1 [Compound B2003, (E)-3-[2,6-dichloro-4-(4-{3-[2-(4-fluorobutyloxy)ethyl]-2-methyloxyphenyl}thiazol-2-ylcarbamoyl)phenyl]-2-methylacrylic acid] |  | 22.7
14 | CCCCCCCCOc1cccc(-c2csc(NC(=O)c3cc(F)c(/C=C(\C)C(=O)O)c(F)c3)n2)c1OC [Compound B2004, (E)-3-{2,6-difluoro-4-[4-(2-methyloxy-3-octyloxyphenyl)thiazol-2-ylcarbamoyl]phenyl}-2-methylacrylic acid] | 13.9 | 
15 | COc1c(COCC(C)(C)C)cccc1-c1csc(NC(=O)c2cc(Cl)c(/C=C(\C)C(=O)O)c(Cl)c2)n1 [Compound B2021, (E)-3-(2,6-dichloro-4-{4-[3-(2,2-dimethylpropyloxymethyl)-2-methyloxyphenyl]thiazol-2-ylcarbamoyl}phenyl)-2-methylacrylic acid] | 6.09 | 
16 | CO/C(=C\c1c(Cl)cc(C(=O)Nc2nc(-c3cccc(COCC(C)(C)C)c3OC)cs2)cc1Cl)C(=O)O [Compound B2022, (Z)-3-(2,6-dichloro-4-{4-[3-(2,2-dimethylpropyloxymethyl)-2-methyloxyphenyl]thiazol-2-ylcarbamoyl}phenyl)-2-methyloxyacrylic acid] | 15.6 | 
17 | CCC(CC)COCc1cccc(-c2csc(NC(=O)c3cc(F)c(/C=C(\C)C(=O)O)c(F)c3)n2)c1OC [Compound B2023, (E)-3-(4-{4-[3-(2-ethylbutyloxymethyl)-2-methyloxyphenyl]thiazol-2-ylcarbamoyl}-2,6-difluorophenyl)-2-methyl acrylic acid] | 6.45 | 
18 | CCC(CC)COCc1cccc(-c2csc(NC(=O)c3cc(Cl)c(/C=C(\OC)C(=O)O)c(Cl)c3)n2)c1OC [Compound B2026, (Z)-3-(2,6-dichloro-4-{4-[3-(2-ethylbutyloxymethyl)-2-methyloxyphenyl]thiazol-2-ylcarbamoyl}phenyl)-2-methyloxyacrylic acid] | 12.6 | 
19 | COc1c(COCCC(C)C)cccc1-c1csc(NC(=O)c2cc(Cl)c(/C=C(\C)C(=O)O)c(Cl)c2)n1 [Compound B2028, (E)-3-(2,6-dichloro-4-{4-[2-methyloxy-3-(3-methylbutyloxymethyl)phenyl]thiazol-2-ylcarbamoyl}phenyl)-2-methylacrylic acid] | 11.4 | 
